Data set [1] has as its target Tyrosine-protein kinase JAK2 (Homo sapiens, UniProt O60674). Kind of data set: Inhibition of JAK2.
Data set [2] deals with T1, Receptor-type tyrosine-protein kinase FLT3 (Homo sapiens, UniProt P36888).
T1 sequence (P36888 whole entry): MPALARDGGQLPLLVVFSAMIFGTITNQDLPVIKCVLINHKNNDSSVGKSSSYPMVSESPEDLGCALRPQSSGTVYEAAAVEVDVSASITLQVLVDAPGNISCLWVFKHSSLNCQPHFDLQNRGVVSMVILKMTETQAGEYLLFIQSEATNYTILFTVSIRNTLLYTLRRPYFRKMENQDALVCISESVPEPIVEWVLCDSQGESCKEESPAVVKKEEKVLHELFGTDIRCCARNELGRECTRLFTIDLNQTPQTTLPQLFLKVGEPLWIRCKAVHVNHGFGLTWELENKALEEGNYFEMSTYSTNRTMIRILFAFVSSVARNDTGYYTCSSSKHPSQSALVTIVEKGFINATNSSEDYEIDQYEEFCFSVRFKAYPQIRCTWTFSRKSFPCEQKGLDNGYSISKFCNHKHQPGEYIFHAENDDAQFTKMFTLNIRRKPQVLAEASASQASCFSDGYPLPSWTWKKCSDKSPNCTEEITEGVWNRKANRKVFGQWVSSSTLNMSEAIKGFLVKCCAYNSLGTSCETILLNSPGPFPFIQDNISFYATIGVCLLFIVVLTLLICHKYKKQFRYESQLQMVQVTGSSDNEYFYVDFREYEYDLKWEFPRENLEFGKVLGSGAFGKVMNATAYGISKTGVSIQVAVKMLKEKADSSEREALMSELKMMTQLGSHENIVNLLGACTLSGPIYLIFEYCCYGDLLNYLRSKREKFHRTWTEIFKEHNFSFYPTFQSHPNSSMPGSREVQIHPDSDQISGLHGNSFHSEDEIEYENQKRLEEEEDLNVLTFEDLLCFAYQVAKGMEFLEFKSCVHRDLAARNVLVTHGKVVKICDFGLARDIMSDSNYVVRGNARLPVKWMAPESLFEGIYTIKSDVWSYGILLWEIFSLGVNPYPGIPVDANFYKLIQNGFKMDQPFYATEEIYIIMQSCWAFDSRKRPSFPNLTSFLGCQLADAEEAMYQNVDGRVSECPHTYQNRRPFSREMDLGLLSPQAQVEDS
Kind of data set: Inhibition of Flt3.

Data set [3] has as its target T2, 3-phosphoinositide-dependent protein kinase 1 (Homo sapiens, UniProt O15530).
T2 sequence (O15530 whole entry): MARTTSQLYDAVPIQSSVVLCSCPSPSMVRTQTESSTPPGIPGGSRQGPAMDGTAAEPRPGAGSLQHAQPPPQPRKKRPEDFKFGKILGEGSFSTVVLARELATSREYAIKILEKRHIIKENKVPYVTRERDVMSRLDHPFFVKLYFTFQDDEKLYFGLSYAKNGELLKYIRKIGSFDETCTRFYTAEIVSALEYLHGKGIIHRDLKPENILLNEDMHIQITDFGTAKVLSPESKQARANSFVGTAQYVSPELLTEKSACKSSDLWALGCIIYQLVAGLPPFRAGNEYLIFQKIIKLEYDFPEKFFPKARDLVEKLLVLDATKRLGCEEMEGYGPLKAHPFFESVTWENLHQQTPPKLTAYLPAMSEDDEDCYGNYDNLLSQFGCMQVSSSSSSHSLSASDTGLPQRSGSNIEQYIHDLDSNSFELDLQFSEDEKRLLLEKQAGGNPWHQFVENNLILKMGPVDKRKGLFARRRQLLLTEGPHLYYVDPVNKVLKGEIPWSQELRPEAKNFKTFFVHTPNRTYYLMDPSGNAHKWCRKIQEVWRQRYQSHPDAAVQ
Kind of data set: Inhibition of PDK1 using [gamma33P]-ATP as substrate after 30 mins by scintillation counting.

The target of data set [4] is Cyclin-dependent kinase 2 (Homo sapiens, UniProt P24941). Kind of data set: Inhibition of CDK2.
Data set [5] in a line: Oral bioavailability in mouse. The class given is ADME, organism-based. To be noted: in vivo.
Data set [6] can be described thus: Half life in human liver microsomes. The class given is ADME, Microsome.

SMILES strings stand for the structures.

Sequence of Tyrosine-protein kinase JAK2 (O60674 whole entry): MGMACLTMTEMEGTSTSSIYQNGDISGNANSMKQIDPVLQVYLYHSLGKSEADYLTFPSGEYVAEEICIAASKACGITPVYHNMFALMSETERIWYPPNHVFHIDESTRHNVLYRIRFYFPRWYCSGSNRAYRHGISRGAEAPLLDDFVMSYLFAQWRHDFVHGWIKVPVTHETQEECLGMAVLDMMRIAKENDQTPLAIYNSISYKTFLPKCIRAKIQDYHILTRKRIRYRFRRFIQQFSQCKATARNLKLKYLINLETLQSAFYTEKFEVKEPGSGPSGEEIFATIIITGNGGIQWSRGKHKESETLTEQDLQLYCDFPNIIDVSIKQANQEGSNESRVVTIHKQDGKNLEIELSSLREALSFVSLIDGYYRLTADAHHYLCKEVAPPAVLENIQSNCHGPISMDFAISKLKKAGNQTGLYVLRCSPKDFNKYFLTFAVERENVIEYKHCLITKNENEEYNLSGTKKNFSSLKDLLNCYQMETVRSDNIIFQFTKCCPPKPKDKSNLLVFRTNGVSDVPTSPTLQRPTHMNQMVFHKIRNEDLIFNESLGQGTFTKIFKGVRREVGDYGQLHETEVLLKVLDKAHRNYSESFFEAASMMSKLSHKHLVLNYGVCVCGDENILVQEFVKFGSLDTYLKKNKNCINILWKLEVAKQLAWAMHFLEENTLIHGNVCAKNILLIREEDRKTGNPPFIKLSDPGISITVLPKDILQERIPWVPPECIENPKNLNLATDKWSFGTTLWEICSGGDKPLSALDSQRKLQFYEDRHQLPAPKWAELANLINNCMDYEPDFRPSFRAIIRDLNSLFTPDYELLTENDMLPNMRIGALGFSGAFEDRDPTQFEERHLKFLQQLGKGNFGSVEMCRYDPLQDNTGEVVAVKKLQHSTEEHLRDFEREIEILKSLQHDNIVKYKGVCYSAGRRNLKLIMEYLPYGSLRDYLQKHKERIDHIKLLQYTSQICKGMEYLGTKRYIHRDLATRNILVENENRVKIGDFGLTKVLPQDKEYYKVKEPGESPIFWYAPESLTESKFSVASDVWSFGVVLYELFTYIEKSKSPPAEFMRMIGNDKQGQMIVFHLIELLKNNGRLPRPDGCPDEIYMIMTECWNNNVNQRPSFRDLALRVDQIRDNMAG

As for `Cc1cnc2nc1-c1cccc(c1)OCC/C=C/CN(C)Cc1cccc(c1)N2`, the IC50 (commonly the concentration at which inhibition is half-maximal) is 180 nM in data set [1], 22 nM in data set [2], 1400 nM in data set [3] and 150 nM in data set [4].
As for `CN1C/C=C/CCOc2cccc(c2)-c2nc(nc3[nH]cnc23)Nc2cccc(c2)C1`, the half-inhibitory concentration (IC50) in data set [2] came to 58 nM; in data set [3] it was 390 nM; in data set [4], 4100 nM.
Consider `Oc1ccc(-c2nc(Nc3cccc(Cl)c3)nc3[nH]cnc23)cc1`, for which the IC50 was 830 nM in data set [1], 7300 nM in data set [2], 1600 nM in data set [3] and 7000 nM in data set [4].
With `COc1ccc(-c2nc(Nc3cccc(NC(=O)CN)c3)nc3[nH]cnc23)cc1OC`, the IC50 in data set [1] was 330 nM; in data set [2], 350 nM; in data set [3] it was 98 nM; in data set [4], > 10000 nM.
In the case of `COc1ccc(-c2nc(Nc3cccc(NC(=O)N4CCCC4)c3)nc3nc[nH]c23)cc1`, the bioavailability (usually dose-corrected exposure relative to a reference, in per cent) in data set [5] stood at 65%. Further, in data set [6], the half-life (usually the time in which the quantity being followed falls by half) is > 1 h.
In data set [4], `CC(C)(C(N)=O)C(=O)NCCCNc1nc(Nc2cccc(NC(=O)N3CCCC3)c2)ncc1Br` registered an IC50 of 1500 nM.
